In patent US9365583B2, “Substituted pyrazoles and uses thereof” (Genentech, Inc., priority 2013, dated 2016):

The compounds below were run against T1, N-terminally GST-tagged DLK (catalytic domain amino acid 1-520) (Homo sapiens, UniProt Q12852) (assay: DLK TR-FRET inhibition assay). Details: 5 nM GST-DLK, 40 nM HIS-MKK4 K131M substrate, 30 μM ATP, 60 minutes at ambient temperature.
T1 construct: N-terminally GST-tagged DLK (catalytic domain amino acid 1-520); purchased Carna Bioscience
T1 sequence (Q12852 1-520): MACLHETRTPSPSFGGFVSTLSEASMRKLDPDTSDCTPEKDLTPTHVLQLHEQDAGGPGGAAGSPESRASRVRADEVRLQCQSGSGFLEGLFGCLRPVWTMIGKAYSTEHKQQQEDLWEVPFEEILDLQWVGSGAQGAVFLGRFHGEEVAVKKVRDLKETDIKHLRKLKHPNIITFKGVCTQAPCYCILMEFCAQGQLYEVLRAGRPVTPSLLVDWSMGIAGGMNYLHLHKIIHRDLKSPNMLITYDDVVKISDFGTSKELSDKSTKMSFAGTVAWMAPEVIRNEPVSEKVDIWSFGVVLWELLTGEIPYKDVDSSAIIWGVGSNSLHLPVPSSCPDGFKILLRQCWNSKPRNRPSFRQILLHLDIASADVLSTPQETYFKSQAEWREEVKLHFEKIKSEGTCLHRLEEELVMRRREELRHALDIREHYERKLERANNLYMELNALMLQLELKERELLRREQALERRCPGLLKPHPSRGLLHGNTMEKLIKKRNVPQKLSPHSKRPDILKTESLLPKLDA
Assay type: biochemical
Procedure, shortened: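 Phosphorylated MKK4 was quantified by TR-FRET (Eu-labelled anti-phospho-MKK4, D2 anti-HIS; 3 h, 665 and 615 nm emission) after EDTA quench. Reactions held 5 nM GST-tagged DLK catalytic domain (1-520), 40 nM HIS-MKK4 K131M substrate, 30 μM ATP and compound (3-fold series from 20 uM), 60 min, room temperature, pH 7.5.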

Ki [nM] | Compound
8.52 | COCCN1CC2(C[C@@H]3[C@H](C2)[C@H]3c2cc(-c3cnc(N)c(C(F)(F)F)c3)nn2C(C)C)C1 [compound 141, 5-(1-isopropyl-5-((1′R,5′S,6′r)-1-(2-methoxyethyl)spiro[azetidine-3,3′-bicyclo[3.1.0]hexan]-6′-yl)-1H-pyrazol-3-yl)-3-(trifluoromethyl)pyridin-2-amine]
2.8 | COC1CN([C@H]2C[C@@H]3[C@H](C2)[C@H]3c2cc(-c3cnc(N)c(C(F)(F)F)c3)nn2CC(F)F)C1 [compound 144, 5-(1-(2,2-difluoroethyl)-5-((1R,3r,5S,6r)-3-(3-methoxyazetidin-1-yl)bicyclo[3.1.0]hexan-6-yl)-1H-pyrazol-3-yl)-3-(trifluoro-methyl)pyridin-2-amine]
3.3 | CO[C@H]1CCN([C@H]2C[C@@H]3[C@H](C2)[C@H]3c2cc(-c3cnc(N)c(C(F)(F)F)c3)nn2CC(F)F)C1 [compound 145, 5-(1-(2,2-difluoroethyl)-5-((1R,3r,5S,6S)-3-((S)-3-methoxypyrrolidin-1-yl)bicyclo[3.1.0]hexan-6-yl)-1H-pyrazol-3-yl)-3-(trifluoro-methyl)pyridin-2-amine]
4.3 | COCCN1CC[C@@]12C[C@@H]1[C@H](C2)[C@H]1c1cc(-c2cnc(N)c(OC(F)(F)F)c2)nn1C(C)C [compound 146, 5-(1-isopropyl-5-((1′R,2r,5′S,6′r)-1-(2-methoxyethyl)spiro[azetidine-2,3′-bicyclo[3.1.0]hexan]-6-yl)-1H-pyrazol-3-yl)-3-(trifluoro-methoxy)pyridin-2-amine]
5.7 | CC(C)n1nc(-c2cnc(N)c(OC(F)(F)F)c2)cc1[C@H]1[C@@H]2C[C@@]3(CCN3CC(F)F)C[C@@H]21 [compound 147, 5-(5-((1′R,2r,5′S,6′r)-1-(2,2-difluoro-ethyl)spiro[azetidine-2,3′-bicyclo[3.1.0]hexan]-6′-yl)-1-isopropyl-1H-pyrazol-3-yl)-3-(trifluoro-methoxy)pyridin-2-amine]
8.9 | CC(C)n1nc(-c2cnc(N)c(C(F)(F)F)c2)cc1[C@H]1[C@@H]2C[C@@]3(CCN3CC(F)F)C[C@@H]21 [compound 148, 5-(5-((1′R,2r,5′S,6′r)-1-(2,2-difluoro-ethyl)spiro[azetidine-2,3′-bicyclo[3.1.0]hexan]-6-yl)-1-isopropyl-1H-pyrazol-3-yl)-3-(trifluoro-methyl)pyridin-2-amine]
4.1 | COC1CN([C@@H]2C[C@@H]3[C@H](C2)[C@H]3c2cc(-c3cnc(N)c(C(F)(F)F)c3)nn2CC(F)F)C1 [compound 149, 5-(1-(2,2-difluoroethyl)-5-((1R,3s,5S,6r)-3-(3-methoxyazetidin-1-yl)bicyclo[3.1.0]hexan-6-yl)-1H-pyrazol-3-yl)-3-(trifluoromethyl) pyridin-2-amine]
3.6 | CO[C@H]1CCN([C@@H]2C[C@@H]3[C@H](C2)[C@H]3c2cc(-c3cnc(N)c(C(F)(F)F)c3)nn2CC(F)F)C1 [compound 150, 5-(1-(2,2-difluoroethyl)-5-((1R,3s,5S,6S)-3-((S)-3-methoxy-pyrrolidin-1-yl)bicyclo[3.1.0]hexan-6-yl)-1H-pyrazol-3-yl)-3-(trifluoro-methyl)pyridin-2-amine]
9 | CC(C)n1nc(-c2cnc(N)c(C(F)(F)F)c2)cc1[C@H]1[C@@H]2C[C@@]3(CCN3C3COC3)C[C@@H]21 [compound 151, 5-(1-isopropyl-5-((1′R,2r,5′S,6′r)-1-(oxetan-3-yl)spiro[azetidine-2,3′-bicyclo[3.1.0]hexan]-6′-yl)-1H-pyrazol-3-yl)-3-(trifluoromethyl) pyridin-2-amine]
0.9 | CC(C)n1nc(-c2cnc(N)c(OC(F)F)c2)cc1[C@H]1[C@@H]2C[C@H](N3C4COCC3C4)C[C@@H]21 [compound 153, 5-(5-((1R,3r,5S,6r)-3-(3-oxa-6-azabicyclo[3.1.1]heptan-6-yl)bicyclo[3.1.0]hexan-6-yl)-1-isopropyl-1H-pyrazol-3-yl)-3-(difluoro-methoxy)pyridin-2-amine]
0.7 | COC1CN([C@H]2C[C@@H]3[C@H](C2)[C@H]3c2cc(-c3cnc(N)c(OC(F)F)c3)nn2CC2CC2)C1 [compound 154, 5-(1-(cyclopropylmethyl)-5-((1R,3r,5S,6r)-3-(3-methoxyazetidin-1-yl)bicyclo[3.1.0]hexan-6-yl)-1H-pyrazol-3-yl)-3-(difluoromethoxy)pyridin-2-amine]
3.3 | COC1CN([C@@H]2C[C@@H]3[C@H](C2)[C@H]3c2cc(-c3cnc(N)c(OC(F)F)c3)nn2CC2CC2)C1 [compound 155, 5-(1-(cyclopropylmethyl)-5-((1R,3s,5S,6r)-3-(3-methoxyazetidin-1-yl)bicyclo[3.1.0]hexan-6-yl)-1H-pyrazol-3-yl)-3-(difluoromethoxy)pyridin-2-amine]
3.1 | CC(C)n1nc(-c2cnc(N)c(OC(F)F)c2)cc1[C@H]1[C@@H]2C[C@@H](N3C4COCC3C4)C[C@@H]21 [compound 157, 5-(5-((1R,3s,5S,6r)-3-(3-oxa-6-azabicyclo[3.1.1]heptan-6-yl)bicyclo[3.1.0]hexan-6-yl)-1-isopropyl-1H-pyrazol-3-yl)-3-(difluoro-methoxy)pyridin-2-amine]
1.2 | CO[C@H]1CCN([C@H]2C[C@@H]3[C@H](C2)[C@H]3c2cc(-c3cnc(N)c(OC(F)F)c3)nn2CC2CC2)C1 [compound 158, 5-(1-(cyclopropylmcthyl)-5-((1R,3r,5S,6S)-3-((S)-3-methoxy-pyrrolidin-1-yl)bicyclo[3.1.0]hexan-6-yl)-1H-pyrazol-3-yl)-3-(difluoromethoxy)pyridin-2-amine]
1.9 | CO[C@H]1CCN([C@@H]2C[C@@H]3[C@H](C2)[C@H]3c2cc(-c3cnc(N)c(OC(F)F)c3)nn2CC2CC2)C1 [compound 159, 5-(1-(cyclopropylmethyl)-5-((1R,3s,5S,6S)-3-((S)-3-methoxy-pyrrolidin-l-yl)bicyclo[3.1.0]hexan-6-yl)-1H-pyrazol-3-yl)-3-(difluoromethoxy)pyridin-2-amine]
2.4 | Nc1ncc(-c2cc([C@H]3[C@@H]4C[C@@H](N5CCOCC5)C[C@@H]43)n(CC(F)F)n2)cc1OC(F)F [compound 160, 5-(1-(2,2-difluoroethyl)-5-((1R,3s,5S,6r)-3-morpholinobicyclo [3.1.0]hexan-6-yl)-1H-pyrazol-3-yl)-3-(difluoromethoxy) pyridin-2-amine]
2.5 | COCCN1CC[C@@]12C[C@@H]1[C@H](C2)[C@H]1c1cc(-c2cnc(N)c(C(F)(F)F)c2)nn1C(C)C [compound 161, 5-(1-isopropyl-5-((1′R,2r,5′S,6′r)-1-(2-methoxyethyl)spiro [azetidine-2,3′-bicyclo[3,1.0]hexan]-6′-yl)-1H-pyrazol-3-yl)-3-(trifluoro-methyl)pyridin-2-amine]
2.6 | CC(C)n1nc(-c2cnc(N)c(OC(F)F)c2)cc1[C@H]1[C@@H]2C[C@@]3(CCN3CC(F)F)C[C@@H]21 [compound 162, 5-(5-((1′R,2r,5′S,6′r)-1-(2,2-difluoro-ethyl)spiro[azetidine-2,3′-bicyclo[3.1.0]hexan]-6′-yl)-1-isopropyl-1H-pyrazol-3-yl)-3-(difluoro-methoxy)pyridin-2-amine]
